Where two headings read alike, the source gives them in different places. Marks after values point to notes of the source that are not given here.
Key:
[1] = Cell viability (MTT) assay of flavonoids in Caco-2 cells; format: cell-based; conditions: human
Protocol: The cytotoxicity of flavonoids and colchicine was evaluated by MTT assay. The cells were grown in 96-well plates at a density of 1 × 10^4 cells/well. After incubation with 40 μM flavonoid for 24 h, the cells were further incubated with an MTT solution (0.5 mg/mL) for 4 h at 37 °C. Finally, after removal of the supernatant, 150 μL dimethyl sulphoxide was added to each well to dissolve crystallized MTT. Absorbance was read at 570 nm with a multiskan spectrum microplate reader (Thermo Labsystems, Waltham, MA, USA). The percentage cell viability relative to that of the control cells was used as the cytotoxicity measure.

Caco-2 cell monolayer = assay: Cellular accumulation (CA) of flavonoids in Caco-2 cell monolayer; conditions: for CA A to B: accumulated in cell monolayer after transport apical to basolateral; for CA A to B / CA B to A: 40 μM, 1 h, normalized to cellular protein, mean ± SD, n = 3; for CA B to A: accumulated in cell monolayer after transport basolateral to apical; for Ratioc (ratio of CA B to A to CA A to B): Caco-2 monolayer; for CA: both sides (CA A to B and CA B to A)
[2] = Permeability (bidirectional transport) of flavonoids in Caco-2 cell monolayers; format: in vitro ADME; conditions: human; for Papp A→B at 60 min, 40 μM: Caco-2, apical to basolateral; for Papp A→B at 60 min, 40 μM / Papp B→A at 60 min, 40 μM: incubation 60 min, 37 °C, D-Hank's pH 7.4, mean ± SD, n = 3–6; for Papp B→A at 60 min, 40 μM: Caco-2, basolateral to apical; for efflux ratio at 60 min, 40 μM: pH 7.4, Caco-2 monolayer, read-out: Ratiop (ratio of Papp B to A to Papp A to B); for Papp at 1 h, 40 μM: Caco-2 monolayer
Protocol: Caco-2 cells were cultured in MEM supplemented with 10% FBS, 1% NEAA, penicillin (100 U/mL) and streptomycin (100 μg/mL) in an atmosphere of 5% CO2 and 90% relative humidity at 37 °C. All cells used in this study were between passages 35 and 45 [16].
Caco-2 cells were seeded at a density of about 8 × 10^4 cells/cm^2 on a 12 wells Millicell hanging insert and left to grow for 19–21 days to reach confluence. Culture medium was replaced every other day for 14 days and daily thereafter. The integrity and transport ability of the Caco-2 cells monolayer were examined by measuring the trans-epithelial electrical resistance (TEER) with a Millicell voltammeter (Millicell ERS-2, Merck Millipore, Billerica, MA, USA) and running standard assays using Lucifer yellow CH as paracellular flux marker. […] Differentiation of Caco-2 cells was checked after 4 and 12 days by determining the activity of alkaline phosphatase with an assay kit (Nanjing Jiancheng Bioengineering Institute, Nanjing, China) and after 21 days transmission electron microscopy was performed on Caco-2 monolayer to evaluate differentiation.
The Caco-2 cell monolayer was washed with D-Hank’s buffer (pH 7.4). Then, the flavonoid (40 μM) was added to either the apical (AP, 0.4 mL) or basolateral (BL, 1.95 mL) side, while the receiving chamber contained the corresponding volume of D-Hank’s buffer and incubated for 1 h at 37 °C. Solutions from both AP and BL sides of Caco-2 cell monolayer were collected and immediately frozen, lyophilized and preserved at −80 °C for high performance liquid chromatography (HPLC) analysis. Papp was calculated from Equation (1), where ΔQ/Δt is the rate of the flavonoid on the accepting chamber (μM/s), A is the surface area of the hanging insert (cm^2) and C0 is the initial concentration of tested flavonoid in donating chamber (μM/mL).(1) Papp=ΔQ/Δt/AC0

[3] = Stability of flavonoids in D-Hank's buffer relative to methanol; format: physicochemical; conditions: 20 μM flavonoid, HPLC peak area in D-Hank's / peak area in methanol × 100%
Protocol: The relative stability was expressed as the relative appearance of flavonoids in different solvents. Each flavonoid (20 μM) was dissolved in two different solvents, D-Hank’s and methanol. […] Relative concentration in D-Hank’s (%) = Peak area in D-Hank’s/Peak area in methanol × 100%(3)

[4] = Recovery (mass balance) of flavonoids during Caco-2 transport assay; format: in vitro ADME; conditions: human, Caco-2, mass balance, both sides of insert plus cells
Protocol: The recovery of the flavonoid glycosides during the transport assays was determined by mass balance and was measured as total amount of the flavonoids on both sides of the insert and in the Caco-2 cells.

[5] = Caco-2, pH 7.4, as stated in text, direction not specified (bilateral)
[6] = transport apical to basolateral, read-out: Recovery (A to B, %)
[7] = transport basolateral to apical, read-out: Recovery (B to A, %)
[8] = pH 7.4, direction not specified (bilateral)

CA A to B (Caco-2 cell monolayer)	CA B to A (Caco-2 cell monolayer)	Papp A→B at 60 min, 40 μM [2]	Papp B→A at 60 min, 40 μM [2]	Relative concentration of flavonoids, D-Hank's/methanol (%) [3]	Ratioc (ratio of CA B to A to CA A to B) (Caco-2 cell monolayer)	efflux ratio at 60 min, 40 μM [2]	Papp at 1 h, 40 μM [2, 5]	recovery [4, 6]	recovery [4, 7]	CA (Caco-2 cell monolayer)	Compound	viability at 24 h, 40 μM [1]	Papp at 1 h, 40 μM [2, 8]
1.932 ± 0.051 µmol/g	3.183 ± 0.504 ^a μmol/g	22.4 ± 1.37 ×10⁻⁶ cm/s	21.7 ± 1.21 ×10⁻⁶ cm/s	60.10%	1.65	0.97	–	–	–	–	O=c1cc(-c2ccccc2)oc2ccccc12 [Compound 1, Flavone]	96.3 ± 9.79%	–
0.096 ± 0.010 µmol/g	0.251 ± 0.012 µmol/g	4.25 ± 0.53 ×10⁻⁶ cm/s	5.08 ± 1.08 ×10⁻⁶ cm/s	–	–	–	< 6 ×10⁻⁶ cm/s	78.7 ± 1.3%	79.5 ± 1.24%	–	COc1ccc(CCC(=O)c2c(O)cc(O[C@@H]3O[C@H](CO)[C@@H](O)[C@H](O)[C@H]3O[C@@H]3O[C@@H](C)[C@H](O)[C@@H](O)[C@H]3O)cc2O)cc1O [Compound 30, Neohesperidin dihydrochalcone]	102 ± 6.35%	–
8.368 ± 1.039 µmol/g	11.887 ± 1.247 ^a μmol/g	6.68 ± 0.93 ×10⁻⁶ cm/s	5.92 ± 0.45 ×10⁻⁶ cm/s	–	–	–	–	–	–	> 6 µmol/g	O=c1c(O)c(-c2ccc(O)cc2)oc2cc(O)cc(O)c12 [Compound 12, Kaempferol]	100 ± 4.53%	–
2.706 ± 0.174 µmol/g	2.423 ± 0.543 µmol/g	21.9 ± 0.585 ×10⁻⁶ cm/s	23.9 ± 0.45 ×10⁻⁶ cm/s	12.09%	0.90	1.1	–	–	–	–	COc1ccc(-c2cc(=O)c3c(OC)c(OC)c(OC)c(OC)c3o2)cc1 [Compound 2, Tangertin]	97.5 ± 3.53%	–
–	–	2.55 ± 1.45 ×10⁻⁶ cm/s	4.68 ± 0.41 ×10⁻⁶ cm/s	52.10%	–	1.84	–	–	–	–	O=c1c(O)c(-c2ccc(O)c(O)c2)oc2cc(O)cc(O)c12 [Compound 10, Quercetin]	102 ± 5.19%	–
3.819 ± 1.320 µmol/g	4.842 ± 0.424 µmol/g	17.4 ± 1.78 ×10⁻⁶ cm/s	18.3 ± 1.83 ×10⁻⁶ cm/s	–	–	–	> 10 ×10⁻⁶ cm/s	–	–	–	COc1ccc(-c2coc3cc(O)ccc3c2=O)cc1 [Compound 23, Formononetin]	94.6 ± 3.6%	–
4.393 ± 0.790 µmol/g	8.804 ± 1.576 ^a μmol/g	13.8 ± 0.73 ×10⁻⁶ cm/s	20 ± 1.29 ×10⁻⁶ cm/s	–	–	–	–	–	–	–	O=C(/C=C/c1ccc(O)cc1)c1ccc(O)cc1O [Compound 29, Isoliquiritigenin]	99.2 ± 7.94%	–
–	–	6.32 ± 1.16 ×10⁻⁶ cm/s	26.1 ± 2.08 ×10⁻⁶ cm/s	–	–	–	> 20 ×10⁻⁶ cm/s	–	–	not detected	O=C1c2c(O)cc(O)cc2OC(c2ccc(O)c(O)c2)C1O (centres unmarked) [Compound 22, Taxifolin]	99.5 ± 2%	–
6.766 ± 1.583 µmol/g	14.087 ± 1.287 ^b μmol/g	11.1 ± 0.51 ×10⁻⁶ cm/s	10.7 ± 2.98 ×10⁻⁶ cm/s	–	–	–	> 10 ×10⁻⁶ cm/s	–	–	> 6 µmol/g	COc1ccc(-c2coc3cc(O)cc(O)c3c2=O)cc1 [Compound 28, Biochanin A]	106 ± 6.44%	–
0.024 ± 0.002 µmol/g	0.044 ± 0.007 µmol/g	3.28 ± 0.32 ×10⁻⁶ cm/s	2.81 ± 0.24 ×10⁻⁶ cm/s	–	–	–	< 6 ×10⁻⁶ cm/s	72.3 ± 18.8%	61.8 ± 0.72%	< 0.26 µmol/g	O=c1cc(-c2ccc(O)cc2)oc2c([C@@H]3OC[C@H](O)[C@H](O)[C@H]3O)c(O)c([C@@H]3O[C@H](CO)[C@@H](O)[C@H](O)[C@H]3O)c(O)c12 [Compound 8, Schaftoside]	103 ± 4.77%	–
3.780 ± 0.711 µmol/g	9.286 ± 0.859 ^b μmol/g	1.94 ± 0.41 ×10⁻⁶ cm/s	1.75 ± 0.44 ×10⁻⁶ cm/s	–	–	–	–	–	–	–	O=c1c(O)c(-c2ccccc2)oc2cc(O)cc(O)c12 [Compound 9, Galangin]	106 ± 7.79%	–

Second part, the compound before the results:

Compound	CA A to B (Caco-2 cell monolayer)	CA B to A (Caco-2 cell monolayer)	Papp A→B at 60 min, 40 μM [2]	Papp B→A at 60 min, 40 μM [2]	Relative concentration of flavonoids, D-Hank's/methanol (%) [3]	Ratioc (ratio of CA B to A to CA A to B) (Caco-2 cell monolayer)	efflux ratio at 60 min, 40 μM [2]	Papp at 1 h, 40 μM [2, 5]	recovery [4, 6]	recovery [4, 7]	CA (Caco-2 cell monolayer)	viability at 24 h, 40 μM [1]	Papp at 1 h, 40 μM [2, 8]
COc1ccc(-c2oc3cc(O)cc(O)c3c(=O)c2O)cc1 [Compound 13, Kaempferide]	2.746 ± 0.478 ^b μmol/g	0.496 ± 0.249 µmol/g	0.35 ± 0.06 ×10⁻⁶ cm/s	0.23 ± 0.03 ×10⁻⁶ cm/s	–	–	–	–	–	–	–	102 ± 6.15%	–
O=c1c(O)c(-c2cc(O)c(O)c(O)c2)oc2cc(O)cc(O)c12 [Compound 14, Myricetin]	–	–	0.29 ± 0.01 ×10⁻⁶ cm/s	0.44 ± 0.01 ×10⁻⁶ cm/s	lower than 40%	–	1.5	–	–	–	not detected	101 ± 3.15%	< 0.5 ×10⁻⁶ cm/s
COc1c(O)cc(O)c2c(=O)cc(-c3ccccc3)oc12 [Compound 3, Wogonin]	1.038 ± 0.212 µmol/g	1.586 ± 0.045 µmol/g	16.4 ± 1.2 ×10⁻⁶ cm/s	18.1 ± 1.62 ×10⁻⁶ cm/s	–	–	–	–	–	–	–	97.7 ± 8.39%	–
O=c1c(-c2ccc(O)cc2)coc2cc(O)ccc12 [Compound 26, Daidzein]	0.500 ± 0.104 µmol/g	1.236 ± 0.117 ^b μmol/g	33.9 ± 3.55 ×10⁻⁶ cm/s	42.2 ± 3.11 ×10⁻⁶ cm/s	–	–	–	> 30 ×10⁻⁶ cm/s	–	–	–	105 ± 4.56%	–
COc1cc(-c2oc3cc(O)cc(O)c3c(=O)c2O)ccc1O [Compound 15, Isorhamnetin]	0.332 ± 0.066 ^a μmol/g	0.076 ± 0.048 µmol/g	1.09 ± 0.02 ×10⁻⁶ cm/s	0.9 ± 0.42 ×10⁻⁶ cm/s	–	–	–	–	–	–	–	93.6 ± 1.22%	–
O=c1c(-c2ccc(O)cc2)coc2cc(O)cc(O)c12 [Compound 27, Genistein]	1.415 ± 0.276 µmol/g	2.777 ± 0.220 ^b μmol/g	31.1 ± 2.13 ×10⁻⁶ cm/s	30.5 ± 2.13 ×10⁻⁶ cm/s	–	–	–	–	–	–	< 5 µmol/g	103 ± 3.37%	> 30 ×10⁻⁶ cm/s
C[C@@H]1O[C@@H](O[C@H]2[C@H](Oc3cc(O)c4c(c3)O[C@H](c3ccc(O)cc3)CC4=O)O[C@H](CO)[C@@H](O)[C@@H]2O)[C@H](O)[C@H](O)[C@H]1O [Compound 20, Naringin]	0.058 ± 0.013 µmol/g	0.068 ± 0.011 µmol/g	3.73 ± 0.73 ×10⁻⁶ cm/s	5.09 ± 1.55 ×10⁻⁶ cm/s	–	–	–	< 6 ×10⁻⁶ cm/s	93.2 ± 7.62%	82.9 ± 11%	–	99.1 ± 4.92%	–
O=c1cc(-c2ccccc2)oc2cc(O)c(O)c(O)c12 [Compound 4, Baicalein]	1.182 ± 0.341 µmol/g	3.272 ± 0.445 ^a μmol/g	1.95 ± 0.53 ×10⁻⁶ cm/s	0.71 ± 0.21 ×10⁻⁶ cm/s	–	–	–	< 2 ×10⁻⁶ cm/s	–	–	–	96.7 ± 6.31%	–
COc1cc2c(=O)c(-c3ccc(O)cc3)coc2cc1O [Compound 25, Glycitein]	1.821 ± 0.774 ^a μmol/g	0.158 ± 0.021 µmol/g	12.4 ± 0.91 ×10⁻⁶ cm/s	6.23 ± 0.46 ×10⁻⁶ cm/s	–	–	–	> 10 ×10⁻⁶ cm/s	–	–	–	98.3 ± 4.6%	–
O=c1c(O)c(-c2ccc(O)cc2O)oc2cc(O)cc(O)c12 [Compound 11, Morin]	0.129 ± 0.008 ^b μmol/g	0.060 ± 0.011 µmol/g	8.23 ± 0.87 ×10⁻⁶ cm/s	21.6 ± 0.32 ×10⁻⁶ cm/s	–	–	–	–	81.5 ± 6.7%	90.1 ± 1.39%	–	102 ± 3.62%	–
